Test results published in ChEMBL document CHEMBL1201862, “PubChem BioAssay data set” (2004).
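Method: 48-hour compound exposure of cells in 96-well plates, five concentrations, linear interpolation of endpoints. The concentration for 50% growth inhibition is given as GI50.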 Calls of active or inactive are those of the source. Cut-off read from the data, not from the text of the source: active = GI50 up to about 1.1 µM and inactive = higher.

How the values were obtained:
Test in all cases: inhibition of tumour cell growth, NCI panel, 48 h
HOP-62 = test system: HOP-62
UACC-62 = test system: UACC-62
UACC-257 = test system: UACC-257
U-251 = test system: U-251
A549 = test system: A549
SF-295 = test system: SF-295
NCI-H23 = test system: NCI-H23
CCRF-CEM = test system: CCRF-CEM
MOLT-4 = test system: MOLT-4
MDA-MB-435 = test system: MDA-MB-435
MDA-N = test system: MDA-N
SK-MEL-2 = test system: SK-MEL-2
TK-10 = test system: TK-10
786-0 = test system: 786-0
NCI-H460 = test system: NCI-H460
PC-3 = test system: PC-3
SNB-19 = test system: SNB-19
OVCAR-5 = test system: OVCAR-5
MCF7 = test system: MCF7

Measured: GI50

Cc1ccc2c(C(=O)c3c(C)n(CCN4CCOCC4)c4ccccc34)cccc2c1
inactive: HOP-62 27.3 µM | UACC-62 14.3 µM | UACC-257 16.3 µM | U-251 12.9 µM | A549 24.4 µM | SF-295 7.45 µM | NCI-H23 14.8 µM | CCRF-CEM 1.79 µM | MOLT-4 3.88 µM | MDA-MB-435 2.29 µM | MDA-N 4.06 µM | SK-MEL-2 17.4 µM | TK-10 23.7 µM | 786-0 13.8 µM | NCI-H460 21.1 µM | PC-3 11.9 µM | SNB-19 33.9 µM | OVCAR-5 23.2 µM | MCF7 3.53 µM

Cc1ccc(C(=O)OCC(C)C)cc1/N=N/N(C)C
inactive: HOP-62 67.8 µM | UACC-62 > 100 µM | UACC-257 26 µM | U-251 65.6 µM | A549 > 79.4 µM | SF-295 27 µM | NCI-H23 34.8 µM | CCRF-CEM > 100 µM | MOLT-4 59.7 µM | MDA-MB-435 95.9 µM | MDA-N > 100 µM | SK-MEL-2 > 100 µM | TK-10 > 100 µM | 786-0 > 81.5 µM | NCI-H460 > 100 µM | PC-3 48.4 µM | SNB-19 > 76.7 µM | OVCAR-5 > 100 µM | MCF7 30.9 µM

CC1=NN2C(=N)/C(=C/c3ccco3)C(=O)N=C2S1
inactive: HOP-62 > 100 µM | UACC-62 > 100 µM | UACC-257 > 100 µM | U-251 > 100 µM | A549 > 100 µM | SF-295 > 100 µM | NCI-H23 > 100 µM | CCRF-CEM > 100 µM | MOLT-4 > 100 µM | MDA-MB-435 > 100 µM | MDA-N > 100 µM | SK-MEL-2 > 100 µM | TK-10 > 100 µM | 786-0 > 100 µM | NCI-H460 > 100 µM | PC-3 > 100 µM | SNB-19 > 100 µM | OVCAR-5 > 100 µM | MCF7 > 100 µM

CN(C)c1ccc(C(c2ccc(Cl)cc2)c2ccc(N(C)C)cc2)cc1
inactive: HOP-62 > 100 µM | UACC-62 > 100 µM | UACC-257 60.1 µM | U-251 > 100 µM | A549 > 100 µM | SF-295 > 100 µM | NCI-H23 > 100 µM | CCRF-CEM 72.9 µM | MOLT-4 > 100 µM | MDA-MB-435 > 100 µM | MDA-N 82.8 µM | SK-MEL-2 > 100 µM | TK-10 > 100 µM | 786-0 > 100 µM | NCI-H460 > 100 µM | PC-3 > 100 µM | SNB-19 > 100 µM | OVCAR-5 > 100 µM | MCF7 49.1 µM
